Measurements from US10517889B2, “Modulators of SMAD7 expression” (Ionis Pharmaceuticals, Inc., priority 2017, dated 2019).
Strand notation (5' to 3'): a small letter for the sugar, then the base; units joined by * are phosphorothioate-linked, units joined directly phosphodiester-linked; [ ] holds rarer units or linkages, { } end groups; capitals alone tell only the bases. k = constrained ethyl (cEt); [5mC] = 5-methylcytosine; d = 2'-deoxy (DNA)

These substances were tested on human SMAD7 mRNA (assay: Antisense inhibition of human SMAD7 mRNA expression in Hep3B cells by 3-10-3 cEt gapmers, 10,000 nM, electroporation (Example 2)). Conditions: Hep3B cells, electroporation with 10,000 nM antisense oligonucleotide, approximately 24 hours, SMAD7 mRNA by RT-PCR (RTS5062), relative to untreated control cells.
Assay type: cell-based
Method in brief: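 qRT-PCR (RTS5062) of SMAD7 mRNA, normalised to RIBOGREEN total RNA, gave percent inhibition relative to untreated controls. Hep3B cells at 20,000 per well received 10,000 nM oligonucleotide by electroporation, with ~24 h treatment.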

In order of rising “% Inhibition” value:
1. 799390 (antisense k[5mC]*kA*kA*dA*dA*d[5mC]*dT*dT*dT*dT*dA*dA*dT*kT*kA*kG) [compound 799390]  0%
2. 799391 (antisense k[5mC]*kG*k[5mC]*d[5mC]*d[5mC]*d[5mC]*dA*dG*d[5mC]*dA*dA*dA*dA*k[5mC]*kT*kT) [compound 799391]  0%
3. 799411 (antisense kT*kG*kG*dA*dG*dA*dA*d[5mC]*dT*dT*dT*dT*d[5mC]*kT*k[5mC]*k[5mC]) [compound 799411]  0%
4. 799375 (antisense kG*k[5mC]*k[5mC]*dT*dA*dT*dA*d[5mC]*dT*dT*d[5mC]*dT*dG*kA*kA*kA) [compound 799375]  10%
5. 799370 (antisense kG*kG*k[5mC]*dA*d[5mC]*dT*d[5mC]*dA*d[5mC]*dT*dA*dA*dG*kT*k[5mC]*kT) [compound 799370]  13%
6. 799387 (antisense k[5mC]*k[5mC]*kA*dG*dG*dA*dG*d[5mC]*dT*dA*dA*dA*dT*kG*kG*kT) [compound 799387]  22%
7. 799389 (antisense kA*kA*kA*dA*d[5mC]*dG*d[5mC]*dA*dG*dG*dA*dG*dG*k[5mC]*kG*kG) [compound 799389]  27%
8. 799408 (antisense kT*kT*kA*dA*dA*dT*d[5mC]*d[5mC]*dT*dG*dA*dG*dA*kA*k[5mC]*kA) [compound 799408]  27%
9. 799371 (antisense k[5mC]*k[5mC]*k[5mC]*dT*dT*dT*d[5mC]*d[5mC]*dA*dT*dT*dA*dT*kT*k[5mC]*k[5mC]) [compound 799371]  28%
10. 799374 (antisense kT*kT*kG*d[5mC]*dA*d[5mC]*d[5mC]*dT*dT*dT*dT*dT*dA*kA*kA*k[5mC]) [compound 799374]  30%
11. 799394 (antisense kA*k[5mC]*kA*dG*dA*dG*dA*dG*d[5mC]*dT*dG*dG*dG*kT*kA*kT) [compound 799394]  33%
12. 799407 (antisense kT*kG*k[5mC]*dA*dG*dG*dA*dA*dA*d[5mC]*d[5mC]*d[5mC]*dA*kA*kG*kG) [compound 799407]  33%
13. 799409 (antisense k[5mC]*kT*kA*d[5mC]*d[5mC]*dT*dA*dA*dT*dG*dT*d[5mC]*dA*kA*k[5mC]*kA) [compound 799409]  34%
14. 799413 (antisense kA*kT*kT*dA*d[5mC]*dT*dG*dA*dT*dG*d[5mC]*dT*dA*kA*kA*kT) [compound 799413]  34%
15. 799414 (antisense k[5mC]*kA*kA*dA*dA*d[5mC]*d[5mC]*dA*dG*d[5mC]*d[5mC]*d[5mC]*d[5mC]*kA*kG*kA) [compound 799414]  34%
16. 799367 (antisense kA*kG*kT*d[5mC]*dT*d[5mC]*d[5mC]*dG*dA*dG*dT*dT*dA*kT*k[5mC]*k[5mC]) [compound 799367]  41%
17. 799388 (antisense kT*kT*kG*d[5mC]*dA*dG*dA*dA*dT*dT*d[5mC]*d[5mC]*dA*kG*kG*kA) [compound 799388]  41%
18. 799376 (antisense kG*k[5mC]*kA*dG*dG*dA*dG*dG*dA*dA*d[5mC]*d[5mC]*dT*kA*k[5mC]*k[5mC]) [compound 799376]  45%
19. 799392 (antisense kT*kA*kT*dT*dA*dG*dA*d[5mC]*d[5mC]*dG*dG*d[5mC]*dA*k[5mC]*k[5mC]*kA) [compound 799392]  46%
20. 799373 (antisense kA*kA*k[5mC]*d[5mC]*dG*dT*d[5mC]*dT*dT*d[5mC]*d[5mC]*d[5mC]*dA*kT*k[5mC]*kT) [compound 799373]  56%
21. 799393 (antisense kT*kG*k[5mC]*dT*dT*dT*dG*d[5mC]*dG*dG*dG*d[5mC]*d[5mC]*kA*k[5mC]*kT) [compound 799393]  56%
22. 799395 (antisense kT*kT*kA*d[5mC]*dA*dA*dA*dT*dA*d[5mC]*dA*dG*dA*kG*kA*kG) [compound 799395]  62%
23. 799372 (antisense k[5mC]*k[5mC]*k[5mC]*dA*dT*d[5mC]*dT*dA*dT*d[5mC]*dG*dA*dA*kT*k[5mC]*kA) [compound 799372]  67%
24. 799368 (antisense k[5mC]*kT*kA*dA*dG*dT*d[5mC]*dT*d[5mC]*d[5mC]*dG*dA*dG*kT*kT*kA) [compound 799368]  68%

Same assay, conditions: Hep3B cells, electroporation with 10,000 nM antisense oligonucleotide, approximately 24 hours, primer probe set RTS5062, relative to untreated control cells

In order of falling “% inhibition of SMAD7 mRNA expression” value:
1. 799381 (antisense kA*kA*k[5mC]*dA*dG*dA*dT*d[5mC]*dT*dA*dT*d[5mC]*dT*k[5mC]*k[5mC]*kT) [compound 799381]  54%
2. 799401 (antisense kT*k[5mC]*kT*dT*dT*dT*dA*dA*dG*dG*dA*dA*dA*kA*k[5mC]*k[5mC]) [compound 799401]  53%
3. 799398 (antisense k[5mC]*kT*kT*dG*dG*dA*dA*dA*dA*dT*dG*dA*dA*k[5mC]*kT*kT) [compound 799398]  48%
4. 799378 (antisense kG*kA*kA*dT*dA*d[5mC]*dT*dG*dA*dG*dA*dA*dA*kA*k[5mC]*k[5mC]) [compound 799378]  46%
5. 799383 (antisense k[5mC]*kA*k[5mC]*dA*dA*dA*dA*dA*d[5mC]*d[5mC]*dA*dA*dG*kG*kT*kT) [compound 799383]  40%
6. 799384 (antisense kG*kG*k[5mC]*dA*d[5mC]*dA*dA*dA*dA*dA*d[5mC]*d[5mC]*dA*kA*kG*kG) [compound 799384]  40%
7. 799385 (antisense kT*kG*k[5mC]*d[5mC]*d[5mC]*dA*dA*d[5mC]*d[5mC]*d[5mC]*dT*dT*d[5mC]*kA*k[5mC]*kT) [compound 799385]  31%
8. 799405 (antisense k[5mC]*kT*kG*dG*dG*dA*dA*d[5mC]*dA*dT*dT*dT*dA*k[5mC]*k[5mC]*k[5mC]) [compound 799405]  28%
9. 799397 (antisense kA*kA*kA*dA*d[5mC]*dA*dG*dA*dG*d[5mC]*dT*dT*dG*kG*kT*kA) [compound 799397]  27%
10. 799377 (antisense kT*kT*kG*d[5mC]*dA*dG*dG*dT*dG*dA*d[5mC]*dT*dG*kG*kA*kG) [compound 799377]  15%
11. 799386 (antisense kA*kG*kG*dA*dG*d[5mC]*dT*dA*dA*dA*dT*dG*dG*kT*kG*k[5mC]) [compound 799386]  12%
12. 799380 (antisense k[5mC]*kT*k[5mC]*d[5mC]*dT*dA*d[5mC]*dT*dG*dT*dA*dA*dG*kA*kG*kG) [compound 799380]  1%
13. 799379 (antisense kT*kT*kT*dG*dA*dT*dA*dG*dT*d[5mC]*d[5mC]*d[5mC]*dT*kA*kT*kG) [compound 799379]  0%
14. 799399 (antisense kT*k[5mC]*k[5mC]*dA*dA*dA*dT*dT*dT*dG*dA*dA*dG*kA*kA*kT) [compound 799399]  0%
15. 799400 (antisense kG*kG*kA*dA*dA*dA*d[5mC]*d[5mC]*dT*d[5mC]*d[5mC]*dA*dA*kA*kT*kT) [compound 799400]  0%
16. 799403 (antisense kG*k[5mC]*kT*dA*dA*dG*dG*dT*d[5mC]*dA*d[5mC]*dT*dG*kT*kT*k[5mC]) [compound 799403]  0%
